The results in this text go back to ChEMBL document CHEMBL1201862, “PubChem BioAssay data set” (2004).

Test systems include OVCAR-5; OVCAR-3; COLO 205; CCRF-CEM; ACHN; BT-549; SK-OV-3; IGROV-1; NCI-H23; SNB-75; NCI-H226; OVCAR-4; Hs-578T; HL-60; SK-MEL-5; T47D; UACC-257; TK-10; LOX IMVI; SK-MEL-28.
Holding throughout (assay): DTP human tumour cell line panel, 48 h

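Protocol summary: plate cells (96-well), add compound at 5 concentrations, incubate 48 h, interpolate endpoints linearly. GI50: concentration for 50% inhibition of growth.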 Calls of active or inactive are those of the source. Cut-off read from the data, not from the text of the source: active = GI50 up to about 1.1 µM and inactive = higher.

Regarding `COc1cc2c(c(OC)c1OC)-c1c(cc3c(c1OC)OCO3)CC(C)C(C)(O)C2OC(=O)c1ccccc1` (stereo not given), the GI50 in the test with OVCAR-5 was > 100 µM (inactive); in the test on OVCAR-3, 29.9 µM (inactive); in the test on COLO 205, 22.5 µM (inactive); in the test on CCRF-CEM, 25.9 µM (inactive); in the test with ACHN it was 32 µM (inactive); in the test on BT-549, 56.1 µM (inactive). The GI50 in the test on SK-OV-3 was 60.4 µM (inactive); with IGROV-1, 38.3 µM (inactive); in the test on NCI-H23, 45.4 µM (inactive); in the test on SNB-75 it was 41 µM (inactive); in the test with NCI-H226 it was 29.4 µM (inactive); with OVCAR-4 it was 35.3 µM (inactive). The GI50 was 32.5 µM (inactive) in the test with Hs-578T; 19.5 µM (inactive) with HL-60; 31.1 µM (inactive) in the test on SK-MEL-5; 42.3 µM (inactive) with T47D; 44.9 µM (inactive) in the test on UACC-257; 96.2 µM (inactive) in the test on TK-10. Moreover, the GI50 is 31.2 µM (inactive) with LOX IMVI and 63.7 µM (inactive) in the test on SK-MEL-28.
For the molecule `CC(C)NC(=O)OCc1c(COC(=O)NC(C)C)c(-c2ccc[n+](COC(=O)Cc3ccccc3)c2)n2c1CCC2`, the GI50 is 36.1 µM (inactive) in the test on OVCAR-5; 41 µM (inactive) in the test with OVCAR-3; 41.7 µM (inactive) in the test with COLO 205; 54.7 µM (inactive) in the test with CCRF-CEM; 13.2 µM (inactive) in the test with ACHN; 24.1 µM (inactive) in the test on BT-549. Also, the GI50 is 29.2 µM (inactive) in the test with SK-OV-3; 75.3 µM (inactive) in the test with IGROV-1; 21.3 µM (inactive) with NCI-H23; 24.3 µM (inactive) with SNB-75; 77.3 µM (inactive) with NCI-H226; 25 µM (inactive) in the test with OVCAR-4. The GI50 was 48.1 µM (inactive) in the test with Hs-578T; > 100 µM (inactive) in the test on HL-60; 33.4 µM (inactive) in the test on SK-MEL-5; 28.7 µM (inactive) in the test with T47D; 58.9 µM (inactive) in the test on UACC-257; 45 µM (inactive) in the test with TK-10. The results for the GI50 in the test with LOX IMVI and with SK-MEL-28 were 24 µM (inactive) and > 100 µM (inactive), respectively.
As for `COc1ccc(N2C(=O)C3c4[nH]c5ccc(OCc6ccccc6)cc5c4C4CCC(c5ccccc5)CC4C3C2=O)cc1` (stereo not given), the GI50 in the test with OVCAR-5 was 30.5 µM (inactive); with OVCAR-3, 57.9 µM (inactive); in the test on COLO 205, 10.8 µM (inactive); in the test with CCRF-CEM it was 4.2 µM (inactive); in the test with ACHN, 7.21 µM (inactive); in the test with BT-549, 4.55 µM (inactive). Further, the GI50 with SK-OV-3 is 4.98 µM (inactive); in the test on IGROV-1, 8.85 µM (inactive); with NCI-H23, 9.62 µM (inactive); with SNB-75, 7.82 µM (inactive); in the test with NCI-H226, 19.2 µM (inactive); in the test with OVCAR-4 it was 1.19 µM (inactive). Further, the GI50 is 5.42 µM (inactive) in the test on Hs-578T; 0.34 µM (active) in the test with HL-60; 8.22 µM (inactive) with SK-MEL-5; 7.73 µM (inactive) in the test with T47D; 42.9 µM (inactive) with UACC-257; 7.55 µM (inactive) in the test on TK-10. Besides, the GI50 was 15.2 µM (inactive) with LOX IMVI and 1.94 µM (inactive) in the test with SK-MEL-28.
As for `O=C1Nc2ccccc2/C1=C/c1c(Cl)[nH]c2ccc(O)cc12`, the GI50 in the test on OVCAR-5 was 4.04 µM (inactive); in the test on OVCAR-3, 1.77 µM (inactive); in the test with COLO 205 it was 2.07 µM (inactive); with CCRF-CEM, 1.4 µM (inactive); with ACHN, 4.7 µM (inactive); in the test on BT-549 it was 4.84 µM (inactive). Moreover, the GI50 in the test on SK-OV-3 was 1.71 µM (inactive); in the test with IGROV-1, 1.69 µM (inactive); in the test on NCI-H23 it was 2.63 µM (inactive); in the test on SNB-75, 1.95 µM (inactive); with NCI-H226, 1.08 µM (active); with OVCAR-4, 3.94 µM (inactive). In addition, the GI50 in the test on Hs-578T is 3.99 µM (inactive); in the test on HL-60 it was 0.836 µM (active); in the test on SK-MEL-5, 1.21 µM (inactive); in the test on T47D, 3.02 µM (inactive); in the test with UACC-257, 10.6 µM (inactive); in the test on TK-10, 10.7 µM (inactive). For the same molecule, the GI50 in the test on LOX IMVI is 2.75 µM (inactive); with SK-MEL-28, 7.05 µM (inactive).
For `CCOC(=O)/C=C(/OCC)[C@@H]1C(C(=O)c2ccc(Cl)cc2)[C@H]1/C(=C\C(=O)OCC)OCC` (stereo not given in full), the GI50 in the test with OVCAR-5 is > 100 µM (inactive); with OVCAR-3 it was > 100 µM (inactive); in the test with COLO 205, 95.3 µM (inactive); in the test with CCRF-CEM, 57.4 µM (inactive); with ACHN, > 100 µM (inactive); in the test on BT-549, > 100 µM (inactive). The GI50 is > 100 µM (inactive) in the test with SK-OV-3; > 100 µM (inactive) in the test with IGROV-1; > 76.9 µM (inactive) in the test on NCI-H23; 25.5 µM (inactive) in the test with SNB-75; > 100 µM (inactive) in the test on NCI-H226; > 100 µM (inactive) in the test with OVCAR-4. For the same molecule, the GI50 in the test with Hs-578T was > 100 µM (inactive); with HL-60 it was 5.87 µM (inactive); with SK-MEL-5 it was 24.9 µM (inactive); in the test with T47D, > 72.9 µM (inactive); with UACC-257 it was > 100 µM (inactive); in the test on TK-10 it was > 40.5 µM (inactive). The GI50 in the test with LOX IMVI and in the test with SK-MEL-28 was > 100 µM (inactive) each time.
For `[N-]=[N+]=Nc1c(-c2ccccc2)c(Cl)nc2ccccc12`, the GI50 was > 100 µM (inactive) in the test with OVCAR-5; 44.6 µM (inactive) in the test with OVCAR-3; 20 µM (inactive) in the test with COLO 205; > 100 µM (inactive) in the test with CCRF-CEM; 19.6 µM (inactive) with ACHN; 23.2 µM (inactive) in the test on BT-549. In addition, the GI50 in the test with SK-OV-3 is 86.3 µM (inactive); in the test on IGROV-1, 39.5 µM (inactive); with NCI-H23, 33.5 µM (inactive); in the test with SNB-75, 29.9 µM (inactive); in the test with NCI-H226, 22.2 µM (inactive); with OVCAR-4, 21.9 µM (inactive). Also, the GI50 is 44.2 µM (inactive) with Hs-578T; 56.2 µM (inactive) in the test with HL-60; 17.3 µM (inactive) with SK-MEL-5; 41 µM (inactive) in the test on T47D; 25.5 µM (inactive) in the test on UACC-257; 74.5 µM (inactive) with TK-10. Further, the GI50 with LOX IMVI is 20.6 µM (inactive); with SK-MEL-28 it was 58.7 µM (inactive).
Take `CNC(=O)OCc1c(COC(=O)NC)c(-c2ccc(-c3ccccc3)cc2)n(C)c1C`: the GI50 is 2.35 µM (inactive) with OVCAR-5; 2.54 µM (inactive) in the test with OVCAR-3; 4.32 µM (inactive) with COLO 205; 0.502 µM (active) in the test with CCRF-CEM; 0.493 µM (active) in the test with ACHN; 1.21 µM (inactive) in the test on BT-549. In addition, the GI50 is 2.88 µM (inactive) in the test on SK-OV-3; 2.24 µM (inactive) with IGROV-1; 2.06 µM (inactive) in the test on NCI-H23; 2.95 µM (inactive) in the test with SNB-75; 7.98 µM (inactive) in the test on NCI-H226; 3.08 µM (inactive) in the test with OVCAR-4. Moreover, the GI50 was 11 µM (inactive) with Hs-578T; 0.351 µM (active) in the test with HL-60; 3.1 µM (inactive) in the test on SK-MEL-5; 2.39 µM (inactive) in the test with T47D; 6.95 µM (inactive) in the test with UACC-257; 3.15 µM (inactive) with TK-10. Moreover, the values for the GI50 in the test on LOX IMVI and in the test on SK-MEL-28 were 2.19 µM (inactive) and 10.9 µM (inactive), respectively.
As to `Nc1nc(Cl)cc(NCC2(CO)CC(OCc3ccccc3)C2)n1` (stereo not given), the GI50 is > 100 µM (inactive) with OVCAR-5; 49.2 µM (inactive) in the test with OVCAR-3; > 100 µM (inactive) with COLO 205; > 100 µM (inactive) in the test with CCRF-CEM; > 100 µM (inactive) in the test on ACHN; 35.9 µM (inactive) in the test with BT-549. In addition, the GI50 was > 100 µM (inactive) with SK-OV-3; > 100 µM (inactive) in the test with IGROV-1; > 100 µM (inactive) in the test with NCI-H23; 16.4 µM (inactive) with SNB-75; 25.6 µM (inactive) in the test with NCI-H226; 27.5 µM (inactive) in the test on OVCAR-4. Also, the GI50 with Hs-578T was > 100 µM (inactive); in the test with HL-60, 27.3 µM (inactive); in the test with SK-MEL-5, 7 µM (inactive); in the test on T47D, 2.94 µM (inactive); with UACC-257, > 100 µM (inactive); in the test on TK-10 it was 19.4 µM (inactive). The GI50 in the test with LOX IMVI is 23.2 µM (inactive); with SK-MEL-28, > 100 µM (inactive).
With `C=C(C(=O)O[C@H]1C/C(C)=C/CC/C(CO)=C/[C@H]2C(=O)OC(=C)[C@H]12)C(O)CO` (stereo not given in full), the GI50 is 17.3 µM (inactive) in the test on OVCAR-5; 6.76 µM (inactive) in the test with OVCAR-3; 3.37 µM (inactive) with COLO 205; 1.67 µM (inactive) in the test with CCRF-CEM; 12.3 µM (inactive) with ACHN; 14.4 µM (inactive) with BT-549. For the same molecule, the GI50 was 18.5 µM (inactive) in the test with SK-OV-3; 19.5 µM (inactive) in the test with IGROV-1; 16.3 µM (inactive) with NCI-H23; 18.7 µM (inactive) with SNB-75; 17.9 µM (inactive) with NCI-H226; 20.5 µM (inactive) in the test with OVCAR-4. Moreover, the GI50 was 23.5 µM (inactive) with Hs-578T; 2.49 µM (inactive) in the test with HL-60; 15.5 µM (inactive) in the test with SK-MEL-5; 3.75 µM (inactive) in the test with T47D; 11.5 µM (inactive) in the test with UACC-257; 7.93 µM (inactive) in the test on TK-10. Further, the GI50 in the test on LOX IMVI was 16.3 µM (inactive); in the test with SK-MEL-28 it was 14.5 µM (inactive).
For the molecule `CCc1nc(N)nc(N)c1-c1ccc(Cl)c([N+](=O)[O-])c1`, the GI50 in the test on OVCAR-5 is 6.11 µM (inactive); in the test with OVCAR-3 it was 8.05 µM (inactive); with COLO 205 it was 6.71 µM (inactive); with CCRF-CEM, 0.0557 µM (active); in the test with ACHN, 0.1 µM (active); in the test on BT-549 it was 31.2 µM (inactive). For the same molecule, the GI50 in the test with SK-OV-3 was 11.2 µM (inactive); with IGROV-1, 0.0778 µM (active); with NCI-H23, 0.0887 µM (active); with SNB-75 it was 4.29 µM (inactive); in the test on NCI-H226 it was 18.2 µM (inactive); in the test with OVCAR-4, 22.6 µM (inactive). Further, the GI50 was 28.1 µM (inactive) with Hs-578T; 0.053 µM (active) in the test on HL-60; 0.417 µM (active) with SK-MEL-5; 10.5 µM (inactive) in the test on T47D; 6.14 µM (inactive) with UACC-257; 17.9 µM (inactive) in the test with TK-10. The GI50 is 0.0524 µM (active) with LOX IMVI and 37.9 µM (inactive) in the test with SK-MEL-28.

By GI50 is commonly meant the concentration giving 50% growth inhibition.
